The subject of one assay is St. pyogenes CN10. Description: Minimum inhibitory concentration in vitro, St. pyogenes CN10. Particulars: Streptococcus pyogenes, read-out: Minimum Inhibitory Concentrations. The class given is cell-based.
The next assay deals with St. faecalis CN478. Kind of assay: Minimum inhibitory concentration in vitro, St. faecalis CN478. In kind it is cell-based. The following applies: Enterococcus faecalis, read-out: Minimum Inhibitory Concentrations.
The subject of the next assay is St. agalactiae CN1143. Description: Minimum inhibitory concentration in vitro, St. agalactiae CN1143. The class given is cell-based. The following applies: Streptococcus agalactiae, read-out: Minimum Inhibitory Concentrations.
For another assay, the system named is Staph. aureus CN491. Description: Minimum inhibitory concentration in vitro, Staph. aureus CN491. In kind it is cell-based. Particulars: Staphylococcus aureus, read-out: Minimum Inhibitory Concentrations.
In another assay the test system is Esch. coli CN314. Description: Minimum inhibitory concentration in vitro, Esch. coli CN314. In kind it is cell-based. The following applies: Escherichia coli, read-out: Minimum Inhibitory Concentrations.
The subject of another assay is N. gonorrhoeae. Description: Minimum inhibitory concentration in vitro, N. gonorrhoeae. The following applies: Neisseria gonorrhoeae, mean of 17 strains, read-out: Minimum Inhibitory Concentrations. The class given is cell-based.
In another assay the test system is B. fragilis. Description: Minimum inhibitory concentration in vitro, B. fragilis. The class given is cell-based. The following applies: Bacteroides fragilis, mean of 3 Strains, read-out: Minimum Inhibitory Concentrations.
For another assay, the system named is bacterial. The following applies: amongst the 2,4-diamino-5-benzylpyrimidines known to date; cited from earlier work.

SMILES strings stand for the structures. In brackets after ≈: the same amount, converted by molar mass.

Take `COc1cc(Cc2cnc(N)nc2N)cc(OC)c1OC` [TMP, 2,4-Diamino-5-(3,4,5-trimethoxybenzyl)pyrimidine, reference compound]: the MIC was determined as 0.5 µg/mL (≈ 1.72 µM) in the assay with St. pyogenes CN10; 0.1 µg/mL (≈ 0.344 µM) with St. faecalis CN478; 0.5 µg/mL (≈ 1.72 µM) in the assay with St. agalactiae CN1143; 0.5 µg/mL (≈ 1.72 µM) in the assay with Staph. aureus CN491; 0.05 µg/mL (≈ 0.172 µM) in the assay on Esch. coli CN314; 40 µg/mL (≈ 138 µM) with N. gonorrhoeae. Besides, the MIC in the assay with B. fragilis was 3.1 µg/mL (≈ 10.7 µM). The general antibacterial activity result in the assay with bacterial is recorded as “most active general antibacterial agent”.

In the case of `COc1cc(Cc2cnc(N)nc2N)c2cc(C)oc2c1OC` [Compound 3, 2,4-Diamino-5-(6,7-dimethoxy-2-methyl-4-benzofuranylmethyl)pyrimidine], the MIC in the assay with St. pyogenes CN10 turned out to be 0.05 µg/mL (≈ 0.159 µM); in the assay on St. faecalis CN478, 0.05 µg/mL (≈ 0.159 µM); in the assay with St. agalactiae CN1143, 0.05 µg/mL (≈ 0.159 µM); in the assay on Staph. aureus CN491, 0.05 µg/mL (≈ 0.159 µM); in the assay with Esch. coli CN314 it was 0.5 µg/mL (≈ 1.59 µM); with N. gonorrhoeae it was 2.8 µg/mL (≈ 8.91 µM). Besides, the MIC in the assay on B. fragilis was 0.6 µg/mL (≈ 1.91 µM).

For `COc1cc(Cc2cnc(N)nc2N)c2c(c1OC)OC(C)C2` (stereo not shown) [Compound 2, 2,4-Diamino-5-(2,3-dihydro-6,7-dimethoxy-2-methyl-4-benzofuranylmethyl)-pyrimidine], the MIC with St. pyogenes CN10 was 0.5 µg/mL (≈ 1.58 µM); in the assay on St. faecalis CN478, 0.05 µg/mL (≈ 0.158 µM); with St. agalactiae CN1143, 0.5 µg/mL (≈ 1.58 µM); in the assay with Staph. aureus CN491, 0.5 µg/mL (≈ 1.58 µM); in the assay on Esch. coli CN314, 0.5 µg/mL (≈ 1.58 µM); in the assay on B. fragilis, 6.2 µg/mL (≈ 19.6 µM).

Regarding `COc1cc(Cc2cnc(N)nc2N)c2c(C)c(C)oc2c1OC` [Compound 1, 2,4-Diamino-5-(6,7-dimethoxy-2,3-dimethyl-4-benzofuranylmethyl)pyrimidine], the MIC with St. pyogenes CN10 came out at 5 µg/mL (≈ 15.2 µM); in the assay on St. faecalis CN478, 0.5 µg/mL (≈ 1.52 µM); in the assay with St. agalactiae CN1143, 5 µg/mL (≈ 15.2 µM); with Staph. aureus CN491, 0.5 µg/mL (≈ 1.52 µM); in the assay with Esch. coli CN314 it was 0.5 µg/mL (≈ 1.52 µM); with N. gonorrhoeae, 25 µg/mL (≈ 76.1 µM). In addition, in the assay with B. fragilis, the MIC amounted to 25 µg/mL (≈ 76.1 µM).
